ChEMBL document CHEMBL2401642, “Sphingosine kinase 2 inhibitor SG-12 induces apoptosis via phosphorylation by sphingosine kinase 2” (2013)
One block for each compound: values may come before it. Activity calls are given as the source filed them. The rule behind the calls is not given here.

Assays:
A20/2J [1] = assay: Induction of apoptosis in mouse A20/2J cells assessed as increase in LDH release at 10 uM up to 10 hrs; type: functional, cell-based
[2] = molecular target: Sphingosine kinase 1 (Mus musculus) (UniProt Q8CI15); assay: Inhibition of mouse SPHK1 in mouse A20/2J cells using [3-3H]sphingosine as substrate assessed as [3H]S1P formation at 8 uM incubated for 5 mins prior to substrate addition measured after 5 mins; type: cell-based
A20/2J [3] = assay: Induction of apoptosis in mouse SPHK1-transfected mouse A20/2J cells assessed as increase in LDH release at 10 uM up to 10 hrs; type: functional, cell-based
A20/2J [4] = assay: Induction of apoptosis in mouse SPHK2-transfected mouse A20/2J cells assessed as chromatin condensation at 8 uM after 18 hrs by transmission electron microscopy; type: functional, cell-based
[5] = Induction of apoptosis in mouse A20/2J cells assessed as early apoptotic cells at 8 uM after 6 hrs by FITC-annexin V/propidium iodide staining-based flow cytometric analysis (reference value: 2.58%); type: functional
[6] = Induction of apoptosis in mouse SPHK2-transfected mouse A20/2J cells assessed as late apoptotic cells at 8 uM after 6 hrs by FITC-annexin V/propidium iodide staining-based flow cytometric analysis (reference value: 1.12%); type: functional
[7] = Induction of apoptosis in mouse N-terminal FLAG-tagged SPHK2-transfected mouse A20/2J cells at 10 uM after 9 hrs by LDH release assay; type: functional
[8] = Induction of apoptosis in mouse A20/2J cells assessed as late apoptotic cells at 8 uM after 6 hrs by FITC-annexin V/propidium iodide staining-based flow cytometric analysis (reference value: 1.39%); type: functional
A20/2J [9] = assay: Induction of apoptosis in mouse SPHK2-transfected mouse A20/2J cells at 8 uM after 6 hrs by flow cytometric analysis in presence of pan-caspase inhibitor z-VAD-fmk; type: functional, cell-based
[10] = molecular target: T1, Sphingosine kinase 2 (Mus musculus) (UniProt Q9JIA7); assay: Inhibition of mouse SPHK2 in mouse A20/2J cells using [3-3H]sphingosine as substrate assessed as [3H]S1P formation at 2 to 4 uM incubated for 5 mins prior to substrate addition measured after 5 mins; type: cell-based
T1 sequence (whole entry): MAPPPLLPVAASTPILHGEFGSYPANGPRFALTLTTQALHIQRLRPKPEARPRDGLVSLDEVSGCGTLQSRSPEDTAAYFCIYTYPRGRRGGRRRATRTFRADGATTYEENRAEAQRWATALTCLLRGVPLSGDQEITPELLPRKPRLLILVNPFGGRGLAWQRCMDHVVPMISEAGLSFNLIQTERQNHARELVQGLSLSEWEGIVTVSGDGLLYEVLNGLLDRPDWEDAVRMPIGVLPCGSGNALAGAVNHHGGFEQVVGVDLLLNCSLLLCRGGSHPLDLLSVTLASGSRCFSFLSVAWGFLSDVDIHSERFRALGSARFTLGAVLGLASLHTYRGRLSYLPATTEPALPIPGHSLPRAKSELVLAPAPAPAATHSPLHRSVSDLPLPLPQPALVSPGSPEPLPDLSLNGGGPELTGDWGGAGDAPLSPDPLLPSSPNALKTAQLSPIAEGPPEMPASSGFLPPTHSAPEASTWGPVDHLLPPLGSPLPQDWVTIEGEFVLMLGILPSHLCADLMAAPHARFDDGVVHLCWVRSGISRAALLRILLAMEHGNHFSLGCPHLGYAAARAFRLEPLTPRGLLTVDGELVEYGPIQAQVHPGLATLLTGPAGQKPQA

A20/2J [11] = assay: Induction of apoptosis in mouse SPHK2-transfected mouse A20/2J cells assessed as increase in LDH release at 10 uM; type: functional, cell-based; settings: TDE = time-dependent effect
[12] = molecular target: T1, Sphingosine kinase 2 (Mus musculus); assay: Inhibition of mouse SPHK2 in mouse A20/2J cells using [3-3H]sphingosine as substrate assessed as [3H]S1P formation at 8 uM incubated for 5 mins prior to substrate addition measured after 5 mins; type: cell-based
[13] = Induction of apoptosis in mouse SPHK2 L219A mutant-transfected mouse A20/2J cells at 10 uM after 9 hrs by LDH release assay; type: functional
[14] = molecular target: T1, Sphingosine kinase 2 (Mus musculus); assay: Activity at mouse SPHK2 transfected in mouse A20/2J cell lysates assessed as compound phosphorylation at 10 uM after 30 mins by autoradiography in presence of [gamma-32P]ATP; type: cell-free
A20/2J [15] = assay: Induction of apoptosis in mouse SPHK1-transfected mouse A20/2J cells assessed as increase in LDH release at 50 uM; type: functional, cell-based
[16] = Induction of apoptosis in mouse SPHK2-transfected mouse A20/2J cells assessed as viable cells at 8 uM after 6 hrs by FITC-annexin V/propidium iodide staining-based flow cytometric analysis (reference value: 96.1%); type: functional; settings: read-out: Activity
[17] = Induction of apoptosis in mouse N-terminal FLAG-tagged SPHK1-transfected mouse A20/2J cells at 10 uM after 9 hrs by LDH release assay; type: functional
[18] = Induction of apoptosis in mouse A20/2J cells assessed as viable cells at 8 uM after 6 hrs by FITC-annexin V/propidium iodide staining-based flow cytometric analysis (reference value: 95.9%); type: functional; settings: read-out: Activity
[19] = molecular target: Sphingosine kinase 1 (Mus musculus) (UniProt Q8CI15); assay: Inhibition of mouse SPHK1 in mouse A20/2J cells using [3-3H]sphingosine as substrate assessed as [3H]S1P formation at 2 to 4 uM incubated for 5 mins prior to substrate addition measured after 5 mins; type: cell-based
[20] = molecular target: Sphingosine kinase 1 (Mus musculus) (UniProt Q8CI15); assay: Activity at mouse SPHK1 transfected in mouse A20/2J cell lysates assessed as compound phosphorylation at 10 uM after 30 mins by autoradiography in presence of [gamma-32P]ATP; type: cell-free
[21] = Induction of apoptosis in mouse SPHK2-transfected mouse A20/2J cells assessed as early apoptotic cells at 8 uM after 6 hrs by FITC-annexin V/propidium iodide staining-based flow cytometric analysis (reference value: 2.48%); type: functional
[22] = Induction of apoptosis in mouse SPHK2 G213D mutant-transfected mouse A20/2J cells at 10 uM after 9 hrs by LDH release assay; type: functional
[23] = Induction of apoptosis in mouse A20/2J cells assessed as activation of caspase 3 at 10 uM after 3 hrs by flow cytometric analysis; type: functional
[24] = Induction of apoptosis in mouse SPHK2-transfected mouse A20/2J cells assessed as activation of caspase 3 at 10 uM after 3 hrs by flow cytometric analysis; type: functional
[25] = Induction of apoptosis in mouse SPHK2 R293E/R294E mutant-transfected mouse A20/2J cells at 10 uM after 9 hrs by LDH release assay; type: functional
A20/2J [26] = assay: Induction of apoptosis in mouse SPHK2-transfected mouse A20/2J cells assessed as increase in LDH release at 10 uM after 6 hrs; type: functional, cell-based
A20/2J [27] = assay: Induction of apoptosis in mouse SPHK2-transfected mouse A20/2J cells assessed as increase in LDH release at 50 uM; type: functional, cell-based
A20/2J [28] = assay: Induction of apoptosis in mouse SPHK2-transfected mouse A20/2J cells assessed as increase in LDH release after 8 hrs; type: functional, cell-based
[29] = Induction of apoptosis in mouse SPHK1-transfected mouse A20/2J cells assessed as activation of caspase 3 at 10 uM after 3 hrs by flow cytometric analysis; type: functional

Chain of Sphingosine kinase 1 (Mus musculus) (Q8CI15 whole entry): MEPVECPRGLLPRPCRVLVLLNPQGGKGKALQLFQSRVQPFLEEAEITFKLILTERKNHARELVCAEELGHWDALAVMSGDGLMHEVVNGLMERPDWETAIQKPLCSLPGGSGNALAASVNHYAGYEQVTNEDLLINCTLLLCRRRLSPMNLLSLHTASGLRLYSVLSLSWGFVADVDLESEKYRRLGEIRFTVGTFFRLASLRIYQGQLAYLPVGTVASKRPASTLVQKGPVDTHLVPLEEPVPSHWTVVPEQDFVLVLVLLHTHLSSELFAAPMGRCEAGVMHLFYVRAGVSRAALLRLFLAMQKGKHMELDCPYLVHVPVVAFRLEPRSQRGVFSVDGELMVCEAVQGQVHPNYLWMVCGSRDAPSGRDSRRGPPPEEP

inhibition [2]: 8%
inhibition [10]: Active
inhibition [12]: 46%
Activity [14]: Active
inhibition [19]: Active
Activity [20]: Active
SMILES: CCCCCCCCc1ccc(C[C@@H](O)[C@@H](N)CO)cc1
Activity (A20/2J [1]): Active
Activity (A20/2J [3]): Active
Activity (A20/2J [4]): Active
Activity [5]: 5.06%
Activity [6]: 19%
Activity [7]: 18.4%
Activity [8]: 1.62%
Activity (A20/2J [9]): Active
Activity (A20/2J [11]): tde
Activity [13]: 20.3%
Activity (A20/2J [15]): Active
viability at 8 µM [16]: 70.1%
Activity [17]: 17.8%
viability at 8 µM [18]: 93.2%
Activity [21]: 7.86%
Activity [22]: 9.8%
Activity [23]: 9.6%
Activity [24]: 31.8%
Activity [25]: 13.2%
Activity (A20/2J [26]): Active
Activity (A20/2J [27]): Active
Activity (A20/2J [28]): Dose-dependent effect
Activity [29]: 6.4%

inhibition [10]: inactive
Activity [14]: Active
inhibition [19]: inactive
Activity [20]: Active
SMILES: CCCCCCCCc1ccc(C[C@H](O)[C@@H](N)CO)cc1
